Patent US20240382600A1, “BIFUNCTIONAL DEGRADERS COMPRISING A TEAD BINDER” (Novartis AG, priority 2021, published 2024)

Key:
[1] = test system: SF268-MCAT_Luc_dox-i-shYAPLevy (Clone 13) cells; experiment: Proliferation assay (resazurin/AlamarBlue), SF268; type: cell-based; conditions: Homo sapiens, SF-268; SF268, 72 hours
[2] = test system: YAP-dependent transcription in SF268-MCAT_Luc_dox-i-shYAPLevy (Clone 13) cells; experiment: YAP reporter gene activity assay (MCAT-Luc), SF268; type: cell-based; conditions: Homo sapiens, SF-268; SF268 MCAT_Luc, 24 hrs
[3] = test system: NCI-H2052 Tet-On shYAP_2371 pLenti6 MCAT_Luc cells; experiment: Proliferation assay (resazurin/AlamarBlue), NCI-H2052; type: cell-based; conditions: Homo sapiens; NCI-H2052, 72 hours
MKN-45/Ubc-luc cells = experiment: Proliferation assay (resazurin/AlamarBlue), MKN-45; type: cell-based; conditions: Homo sapiens; MKN-45, 72 hours
Outline: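 MKN-45 cells carrying constitutive Ubc-driven luciferase reporter, treated the day after seeding with eleven 2-fold dilutions (0.1% DMSO) for 72 h at 37 °C. Viability by resazurin, referenced to day-0 plate; GI50 from % growth (100 none, 0 stasis, −100 kill) and residual viability at top concentration.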

[4] = test system: MKN-45/Ubc-luc cells (unspecific inhibition of luciferase expression or activity); experiment: Reporter gene assay specificity control (Ubc-Luc), MKN-45; type: cell-based; conditions: Homo sapiens; MKN-45/Ubc-luc specificity control, 24 hrs
Outline: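 MKN-45 cells stably carrying a ubiquitin C promoter–firefly luciferase construct, treated the day after seeding with eleven 2-fold compound dilutions (0.1% DMSO final) for 24 hrs at 37° C. Luminescence read 5 min after Steady Glo addition; cell-free background subtracted, as a control for nonspecific luciferase inhibition.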

[5] = test system: YAP-dependent transcription in NCI-H2052 Tet-On shYAP_2371 pLenti6 MCAT_Luc cells; experiment: YAP reporter gene activity assay (MCAT-Luc), NCI-H2052; type: cell-based; conditions: Homo sapiens, 24 hrs
[6] = target: Avi-humanTEAD4^217-434 / Cy5 labeled humanYAP^60-100 (Homo sapiens (Human), UniProt Q15561); experiment: In-vitro biochemical TR-FRET assay (TEAD4/YAP); type: binding; conditions: 1 h at room temperature
Avi-humanTEAD4^217-434 / Cy5 labeled humanYAP^60-100, sequence (Q15561 217-434): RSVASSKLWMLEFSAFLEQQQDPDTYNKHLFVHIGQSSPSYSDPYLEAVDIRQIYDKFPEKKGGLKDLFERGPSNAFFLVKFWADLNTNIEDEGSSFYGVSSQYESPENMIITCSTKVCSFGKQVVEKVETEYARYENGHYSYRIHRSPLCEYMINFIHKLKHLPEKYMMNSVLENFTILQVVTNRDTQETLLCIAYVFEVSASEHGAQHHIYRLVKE

[7] = target: TEAD1-GFP in HEK293A cells (Homo sapiens (Human), UniProt P28347); experiment: TEAD1 protein abundance flow cytometry assay in HEK293A; type: cell-based; conditions: HEK293A TEAD1-GFP-CHYSEL-mCherry sensor cells, 24 h, GFP signal by flow cytometry
TEAD1-GFP in HEK293A cells, sequence (P28347 whole entry): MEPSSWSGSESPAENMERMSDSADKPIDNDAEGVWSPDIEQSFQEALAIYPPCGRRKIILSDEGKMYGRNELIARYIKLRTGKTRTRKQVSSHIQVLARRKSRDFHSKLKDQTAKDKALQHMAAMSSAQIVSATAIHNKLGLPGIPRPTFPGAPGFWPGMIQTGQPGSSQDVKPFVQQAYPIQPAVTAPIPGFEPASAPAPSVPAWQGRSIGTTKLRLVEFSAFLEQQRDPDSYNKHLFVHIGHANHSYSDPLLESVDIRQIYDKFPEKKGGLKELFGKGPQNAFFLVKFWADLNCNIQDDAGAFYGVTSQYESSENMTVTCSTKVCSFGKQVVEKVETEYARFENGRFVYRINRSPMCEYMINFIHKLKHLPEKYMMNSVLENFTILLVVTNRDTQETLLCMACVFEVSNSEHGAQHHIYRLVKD
Procedure: Degradation of TEAD1 was measured in HEK293A cells (Invitrogen R70507) expressing TEAD1-GFP and mCherry from a stably integrated bicistronic TEAD1-GFP-CHYSEL-mCherry construct. Reduction of the GFP signal measured by flow cytometry served as readout for TEAD1 degradation after degrader treatment.
Stable HEK293A sensor cells were maintained in complete growth medium (DMEM high Glucose+10% FCS+1% L-Glutamine+1% NEAA+1% NaPyr.+4 μg/mL blasticidin) with passaging performed twice per week. On Day 0, stable HEK293A sensor cells were seeded at 5,000 cells/well in a 96-well microtiter plate in 100 μL complete medium. On Day 1, cells were treated in duplicate with 10-point 1:3 dilution series of compound using the HP D300 Digital Dispenser (Tecan). DMSO concentrations were normalized across the plate to 0.1%. On Day 2, after 24 h of incubation at 37° C., treatment media was discarded, cells rinsed with 100 μL/well PBS and then detached using 40 μL trypsin/well for 5 min. Trypsin was neutralized with 100 μL/well PBS+20% FCS).
Flow cytometry was performed on the samples using the CytoFlex S (Beckman Coulter). Cell identification was then performed using forward (FSC) vs. side scatter (SSC) plots. Single cell discrimination was performed using SSC-Width (SSC-W) vs. SSC-Height (SSCH) plots. Median GFP values for 2,500 single cells were used to determine TEAD1 levels. Median GFP values from HEK293A were used as a background signal and thus defining 0% TEAD1 signal. Median GFP values from DMSO treated HEK293A TEAD1-GFP CHYSEL-mCherry were used to define 100%
TEAD1 signal for subsequent DC50 curves (concentration at 50% TAED1 degradation). GFP and RFP were read in the channels called FITC and PE, respectively. Concentration response curves plotting relative reduction of the GFP signal (measured by flow cytometry) versus 10 compound concentrations (starting concentration 10 μM, 3 fold dilution steps) of the compounds allowed generation of DC50 values.

In the case of `COc1ccc(C(N)=O)c(-c2c(Cl)c(F)cc3c2[C@H](C)[C@@](CN[C@H]2CC[C@H](C(=O)N4CCC(CC5CCN(CCn6cccc(CN7CCC(=O)NC7=O)c6=O)CC5)CC4)CC2)(c2ccccc2)O3)c1F` (atropisomer, axis not shown) [Example 15, 2-((2S,3S,4S)-5-chloro-2-((((1r,4S)-4-(4-((1-(2-(3-((2,4-dioxotetrahydropyrimidin-1(2H)-yl)methyl)-2-oxopyridin-1(2H)-yl)ethyl)piperidin-4-yl)methyl)piperidine-1-carbonyl)cyclohexyl)amino)methyl)-6-fluoro-3-methyl-2-phenyl-2,3-dihydrobenzofuran-4-yl)-3-fluoro-4-methoxybenzamide], the GI50 [1] is reported as 85 nM, the IC50 [2] is reported as 2.6 nM and the GI50 [3] is reported as 31 nM. It also gave a GI50 (MKN-45/Ubc-luc cells) of 1550 nM, an IC50 [4] of over 2000 nM and an IC50 [5] of 17 nM. The IC50 [6] was under 1 nM and the DC50 [7] was 3 nM.
`COc1ccc(C(N)=O)c(-c2c(Cl)c(F)cc3c2[C@H](C)[C@@](CN[C@H]2CC[C@H](C(=O)N4CCC(CC5CCN(C(=O)Cn6cccc(CN7CCC(=O)NC7=O)c6=O)CC5)CC4)CC2)(c2ccccc2)O3)c1F` (atropisomer, axis not shown) [Example 16, 2-((2S,3S,4S)-5-chloro-2-((((1r,4S)-4-(4-((1-(2-(3-((2,4-dioxotetrahydropyrimidin-1(2H)-yl)methyl)-2-oxopyridin-1(2H)-yl)acetyl)piperidin-4-yl)methyl)piperidine-1-carbonyl)cyclohexyl)amino)methyl)-6-fluoro-3-methyl-2-phenyl-2,3-dihydrobenzofuran-4-yl)-3-fluoro-4-methoxybenzamide] gave a GI50 [1] of 64 nM, an IC50 [2] of 1.2 nM and a GI50 [3] of 52 nM. For the same molecule, the GI50 (MKN-45/Ubc-luc cells) was over 2000 nM, the IC50 [4] was over 2000 nM and the IC50 [5] was 14 nM. The IC50 [6] was 1.3 nM and the DC50 [7] was 6 nM.
With `COc1ccc(C(=O)N2CCC(CN3CCN(C(=O)[C@H]4CC[C@H](NC[C@]5(c6ccccc6)Oc6cc(F)c(Cl)c(-c7c(C(N)=O)ccc(OC)c7F)c6[C@@H]5C)CC4)CC3)CC2)cc1N1CCC(=O)NC1=O` (atropisomer, axis not shown) [Example 17, 2-((2S,3S,4S)-5-chloro-2-((((1r,4S)-4-(4-((1-(3-(2,4-dioxotetrahydropyrimidin-1(2H)-yl)-4-methoxybenzoyl)piperidin-4-yl)methyl)piperazine-1-carbonyl)cyclohexyl)amino)methyl)-6-fluoro-3-methyl-2-phenyl-2,3-dihydrobenzofuran-4-yl)-3-fluoro-4-methoxybenzamide] the GI50 [1] was 49 nM, the IC50 [2] was 0.85 nM and the GI50 [3] was 62 nM. The GI50 (MKN-45/Ubc-luc cells) was over 2000 nM, the IC50 [4] was over 2000 nM and the IC50 [5] was 15 nM. For the same molecule, the IC50 [6] was 1 nM and the DC50 [7] was 4 nM.
For `COc1ccc(C(N)=O)c(-c2c(Cl)c(F)cc3c2[C@H](C)[C@@](CN[C@H]2CC[C@H](C(=O)N4CCC(C5CCN(C(=O)COc6ccc(C)c(N7CCC(=O)NC7=O)c6)CC5)CC4)CC2)(c2ccccc2)O3)c1F` (atropisomer, axis not shown) [Example 19, 2-((2S,3S,4S)-5-chloro-2-((((1r,4S)-4-(1′-(2-(3-(2,4-dioxotetrahydropyrimidin-1(2H)-yl)-4-methylphenoxy)acetyl)-[4,4′-bipiperidine]-1-carbonyl)cyclohexyl)amino)methyl)-6-fluoro-3-methyl-2-phenyl-2,3-dihydrobenzofuran-4-yl)-3-fluoro-4-methoxybenzamide], the GI50 [1] was 29 nM, the IC50 [2] was 0.41 nM and the GI50 [3] was 12 nM. The GI50 (MKN-45/Ubc-luc cells) was over 2000 nM, the IC50 [4] was over 2000 nM and the IC50 [5] was 4.6 nM. It also gave an IC50 [6] of 2.1 nM and a DC50 [7] of 0.5 nM.
`COc1ccc(C(N)=O)c(-c2c(Cl)c(F)cc3c2[C@H](C)[C@@](CN[C@H]2CC[C@H](C(=O)N4CCC(OC5CCN(C(=O)COc6ccc(C)c(N7CCC(=O)NC7=O)c6)CC5)CC4)CC2)(c2ccccc2)O3)c1F` (atropisomer, axis not shown) [Example 20, 2-((2S,3S,4S)-5-chloro-2-((((1r,4S)-4-(4-((1-(2-(3-(2,4-dioxotetrahydropyrimidin-1(2H)-yl)-4-methylphenoxy)acetyl)piperidin-4-yl)oxy)piperidine-1-carbonyl)cyclohexyl)amino)methyl)-6-fluoro-3-methyl-2-phenyl-2,3-dihydrobenzofuran-4-yl)-3-fluoro-4-methoxybenzamide] was tested, and the GI50 [1] was 18 nM, the IC50 [2] was 0.22 nM and the GI50 [3] was 19 nM. The GI50 (MKN-45/Ubc-luc cells) was over 20000 nM, the IC50 [4] was over 20000 nM and the IC50 [5] was 3.9 nM. For the same molecule, the IC50 [6] was 1.4 nM and the DC50 [7] was 0.4 nM.
With `COc1ccc(C(N)=O)c(-c2c(Cl)c(F)cc3c2[C@H](C)[C@@](CN[C@H]2CC[C@H](C(=O)N4CCC(CC5CCN(C(=O)COc6ccc(C)c(N7CCC(=O)NC7=O)c6)CC5)CC4)CC2)(c2ccccc2)O3)c1F` (atropisomer, axis not shown) [Example 21, 2-((2S,3S,4S)-5-chloro-2-((((1r,4S)-4-(4-((1-(2-(3-(2,4-dioxotetrahydropyrimidin-1(2H)-yl)-4-methylphenoxy)acetyl)piperidin-4-yl)methyl)piperidine-1-carbonyl)cyclohexyl)amino)methyl)-6-fluoro-3-methyl-2-phenyl-2,3-dihydrobenzofuran-4-yl)-3-fluoro-4-methoxybenzamide] the GI50 [1] was 9.4 nM, the IC50 [2] was 0.3 nM and the GI50 [3] was 4.3 nM. For the same molecule, the GI50 (MKN-45/Ubc-luc cells) was over 2000 nM, the IC50 [4] was over 2000 nM and the IC50 [5] was 1.4 nM. The IC50 [6] was 1.6 nM and the DC50 [7] was 0.3 nM.
For `COc1ccc(C(N)=O)c(-c2c(Cl)c(F)cc3c2[C@H](C)[C@@](CN[C@H]2CC[C@H](C(=O)N4CCN(CC5CCN(C(=O)COc6ccc(C)c(N7CCC(=O)NC7=O)c6)CC5)CC4)CC2)(c2ccccc2)O3)c1F` (atropisomer, axis not shown) [Example 22, 2-((2S,3S,4S)-5-chloro-2-((((1r,4S)-4-(4-((1-(2-(3-(2,4-dioxotetrahydropyrimidin-1(2H)-yl)-4-methylphenoxy)acetyl)piperidin-4-yl)methyl)piperazine-1-carbonyl)cyclohexyl)amino)methyl)-6-fluoro-3-methyl-2-phenyl-2,3-dihydrobenzofuran-4-yl)-3-fluoro-4-methoxybenzamide], the GI50 [1] was 9.5 nM, the IC50 [2] was 0.18 nM and the GI50 [3] was 9.5 nM. The GI50 (MKN-45/Ubc-luc cells) was over 2000 nM, the IC50 [4] was over 2000 nM and the IC50 [5] was 2 nM. The IC50 [6] was 1 nM and the DC50 [7] was 0.4 nM.
In the case of `COc1ccc(C(N)=O)c(-c2c(Cl)c(F)cc3c2[C@H](C)[C@@](CN[C@H]2CC[C@H](C(=O)NCCCCCCCNC(=O)COc4ccc(C)c(N5CCC(=O)NC5=O)c4)CC2)(c2ccccc2)O3)c1F` (atropisomer, axis not shown) [Example 23, 2-((2S,3S,4S)-5-chloro-2-((((1r,4S)-4-((7-(2-(3-(2,4-dioxotetrahydropyrimidin-1(2H)-yl)-4-methylphenoxy)acetamido)heptyl)carbamoyl)cyclohexyl)amino)methyl)-6-fluoro-3-methyl-2-phenyl-2,3-dihydrobenzofuran-4-yl)-3-fluoro-4-methoxybenzamide], the GI50 [1] is reported as 74 nM, the IC50 [2] is reported as 1.4 nM and the GI50 [3] is reported as 35 nM. For the same molecule, the GI50 (MKN-45/Ubc-luc cells) was over 2000 nM, the IC50 [4] was over 2000 nM and the IC50 [5] was 13 nM. The IC50 [6] was under 1 nM and the DC50 [7] was 3 nM.
